Values quoted from earlier work, collected in patent US9579288B2, “Tesofensine and beta blocker combination formulations” (Saniona A/S, priority 2015, dated 2017).

Experiments:
[1] = obese patients, long-term treatment, corrected for placebo and diet effects
DIO rats = settings: rat model of diet-induced obesity (DIO)

## CCOC[C@@H]1[C@@H](c2ccc(Cl)c(Cl)c2)C[C@@H]2CC[C@H]1N2C [Tesofensine, (1R,2R,3S,5S)-3-(3,4-dichlorophenyl)-2-(ethoxymethyl)-8-methyl-8-azabicyclo[3.2.1]octane]
[1]
  weight loss: about 10%
DIO rats
  body weight: robust and sustained weight loss
